In article PMC3280264 (PLoS ONE, 2012):

Target: T1, Human SGLT3 (Homo sapiens, UniProt Q9NY91)
T1 construct: expressed in transfected cells; host or cells: oocytes (from Nasco), injected with mRNA
T1 sequence (Q9NY91 1-659): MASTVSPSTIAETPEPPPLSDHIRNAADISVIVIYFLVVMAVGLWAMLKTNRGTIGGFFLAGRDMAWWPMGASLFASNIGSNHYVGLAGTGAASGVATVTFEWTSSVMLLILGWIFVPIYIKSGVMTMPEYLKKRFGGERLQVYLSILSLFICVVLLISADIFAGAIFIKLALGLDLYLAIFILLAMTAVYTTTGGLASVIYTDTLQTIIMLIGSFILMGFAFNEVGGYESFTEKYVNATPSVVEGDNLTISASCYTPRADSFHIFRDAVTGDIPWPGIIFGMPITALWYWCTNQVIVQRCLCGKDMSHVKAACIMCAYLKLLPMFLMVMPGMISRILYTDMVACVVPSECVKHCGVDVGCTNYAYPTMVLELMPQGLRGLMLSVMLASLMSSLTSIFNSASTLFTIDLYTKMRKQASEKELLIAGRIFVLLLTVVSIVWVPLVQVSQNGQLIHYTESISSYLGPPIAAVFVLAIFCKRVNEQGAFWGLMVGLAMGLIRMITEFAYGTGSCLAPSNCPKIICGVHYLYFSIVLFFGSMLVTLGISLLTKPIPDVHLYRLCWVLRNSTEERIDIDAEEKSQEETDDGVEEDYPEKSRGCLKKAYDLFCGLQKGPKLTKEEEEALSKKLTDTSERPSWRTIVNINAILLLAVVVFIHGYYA
Assay: Two-electrode voltage clamp recording of oocytes expressing human SGLT3 (DNJ-induced currents)
Assay type: cell-based
Details: 3 mM
Experimental: Oocytes were obtained from Nasco (Fort Atkinson, Wisconsin, USA). Stage V–VI oocytes were injected with 50 nl of either human SGLT3 mRNA (at 1 ng/nl) or distilled water (control) and incubated at 18°C in a calcium-free solution (92 mM NaCl, 2 mM KCl, 1 mM MgCl2, 5 mM HEPES, 0.05 mg/ml gentamicin at pH 7.5) for 4–6 days before recording. The extracellular recording solution contained 92 mM NaCl, 2 mM KCl, 1.8 mM CaCl2, 1 mM MgCl2, and 5 mM HEPES at pH 7.5. Injected oocytes were impaled with 2 microelectrodes filled with 3 M KCl (resistance of ∼0.5–3 MΩ) and voltage clamped to −120 mV, at which continuous recordings were made (filtered at 5 kHz and sampled at 625 Hz). To establish the baseline in the absence of agonist, oocytes were first perfused for 85 seconds with a control buffer (92 mM NaCl, 2 mM KCl, 1.8 mM CaCl2, 1 mM MgCl2, 5 mM HEPES at pH 7.5). […] Finally, phlorizin (3 mM) was applied in the presence of 50 µM DNJ for 160 seconds. All experiments were performed at 22°C. Currents in the presence of 50 µM DNJ were subtracted from leak currents (currents in control buffer alone) to obtain DNJ-induced currents (IDNJ). Effects of compounds were calculated as: % Inhibition = 100×(IDNJ−Icmpd)/IDNJ, where Icmpd is the DNJ-induced and leak-subtracted current in the presence of a compound or DMSO. Due to lack of effect at the highest dose tested, a dose-response relationship was not examined.

O=C(CCc1ccc(O)cc1)c1c(O)cc(O)cc1O[C@@H]1O[C@H](CO)[C@@H](O)[C@H](O)[C@H]1O [phlorizin, reference compound] was tested, and the inhibition at 3000 µM (SGLT3-injected oocytes, 50 µM DNJ, n = 14, P<0.05) was 73.5 ± 4.2% and the “effect on currents in sham-injected oocytes” value (sham (water)-injected oocytes, in the presence of 50 µM DNJ) was “did not affect currents”.
